Data as given in patent US6949516B2, “Dipeptide apoptosis inhibitors and the use thereof” (Cytovia, Inc., priority 1997, dated 2005).
Where a SMILES comes first, the peptide text is derived from it. The star is where a group is joined. Cbz = O=C(OCc1ccccc1)*; CH2F = FC*

What was measured:
[1] = tested on: HeLa cells; assay: Effect of Z-VD-fmk on TNF-α-induced cell death in HeLa cells (calcein AM, Example 25); format: cell-based; settings: below 50 μM (data not shown)
Description: Tumor necrosis factor alpha (TNF-α) can trigger apoptosis in a number of cell types by initiating the caspase cascade and its apoptosis inducing activity can be inhibited by peptide-based caspase inhibitors. However, high concentrations of the inhibitors (50 μM or greater) is required to have good anti-apoptotic effect. HeLa cells, a cell line commonly employed in TNF-α cell death studies, was used here to determine the anti-apoptotic potency of Z-VD-fmk.
HeLa cells were seeded in 48-well multidishes at a density of 50,000 cells per well 24 hours before treatment. They were then pre-incubated with varying concentrations of Z-VD-fmk for 2 hours and challenged with TNF-α (25 ng/mL) and cycloheximide (CHX; 30 μg/mL). The cultures were incubated for an additional 24 hours and dead cells were removed by two washes with PBS. The density of surviving cells was then measured by incubating each culture for 45 minutes with calcein AM, a profluorescent dye which is taken up by living cells and converted to a fluorescent product. The resulting data were expressed as % control values (control values were cells incubated with cycloheximide but without TNF-α).
Z-VD-fmk provided good cytoprotection at concentrations approaching 100 nM.

[2] = tested on: HeLa cells; assay: Cell death assay with HeLa cells, qualitative (phase contrast microscopy), TNF-α/CHX challenge; format: cell-based; settings: 24 hour incubation
Description: (§1) The cytoprotective properties of Cbz-Val-Asp(OMe)CH2F were tested using HeLa cells challenged with tumor necrosis factor-alpha (TNF-α) and cycloheximide (CHX). This is a well-characterized cell culture model of apoptosis which is commonly used to analyze anti-apoptotic agents. Two types of experiments were performed: a qualitative assessment of cell death by visualization of the cells using phase contrast microscopy; and a quantitative assessment of cell death using the fluorescent dye calcein AM.
For photomicroscopy, HeLa cells are seeded in 12-well multidishes at a density of 100,000 cells per well in Minimal Essential Medium containing 2 mM glutamine and 10% fetal bovine serum. 24 hours later the plating medium is removed and fresh medium is added containing the cytoprotective test compound at various concentrations. The cells are pre-incubated with test compound for 2 hours at 37° C. in a CO2 incubator and then TNF-α and CHX are added at final concentrations of 25 ng/mL and 30 μg/mL, respectively. After a 24 hour incubation period, the cells are examined visually for evidence of cell death based on cell shape and degree of adherence. Cells are considered dead if they have become rounded up and phase bright and have detached from the substratum. Cells are considered alive if they have retained their normal morphology and remain attached to the substratum.
All of these compounds are the methyl ester derivatives. […] At 50 μM, the related peptides BOC-Asp(OMe)-CH2F (FIG. 1C) and Cbz-Glu(OMe)-Val-Asp(OMe)-CH2F (FIG. 1E) are also protective.

[3] = tested on: HeLa cells; assay: Cell death assay with HeLa cells, quantitative (calcein AM), TNF-α/CHX challenge; format: cell-based
Description: as §1
For quantitative assays, the degree of cell survival in the presence of test compounds is analyzed quantitatively using the indicator dye calcein AM. This dye is taken up and converted to a fluorescent derivative by living cells; the amount of activated dye in each well can then be assayed in a fluorometric plate reader and the degree of fluorescence is used as a measure of the number of surviving cells. For these assays, HeLa cells are seeded in 48-well plates at a density of 25,000 cells per well in 0.4 mL of Minimal Essential Medium containing 2 mM glutamine and 10% fetal bovine serum. 24 hours later the plating medium is removed and 0.5 mL of fresh medium containing test compound at various concentrations is added. The cells are pre-incubated with test compound for 2 hours at 37° C. in a CO2 incubator and then TNF-α and CHX are added at final concentrations of 25 ng/mL and 30 μg/mL, respectively. After a 24 hour incubation period, the cultures are washed twice with serum-free, phenol red-free Ham's F12 to remove dead cells and 125 μL of Ham's F12 containing 8 μM calcein AM is added. […] The data are expressed as “Percent Control,” which is calculated by the following equation: Percent Control=(Calcein AM Signal in the Presence of Test Compound+TNF-α and CHX/(Calcein AM Signal in the Presence of CHX Only)×100% The use of CHX-treated cultures as controls, rather than untreated cultures, allows one to correct for the cytostatic effects of CHX. However, because CHX by itself is also a mild inducer of apoptosis in HeLa cells, strong anti-apoptotic drugs will give a Percent Control value greater than 100%.
Quantitative experiments using calcein AM, as described above, corroborate the results obtained by microscopic examination. FIGS. 4 and 5 illustrate the results of two such experiments where the cytoprotective properties of Cbz-Val-Asp(OMe)-CH2F (a) were compared to BOC-Asp(OMe)-CH2F (b) (FIG. 5) and Cbz-Asp(OMe)-Glu(OMe)-Val-Asp(OMe)-CH2F (SEQ ID NO:1) (c) (FIG. 4) at three concentrations (0.5, 5 and 50 μM). […] By contrast, Cbz-Val-Asp(OMe)-CH2F (a) is as effective a cytoprotectant at 0.5 μM as Cbz-Asp(OMe)-Glu(OMe)-Val-Asp(OMe)-CH2F (SEQ ID NO:1) […] is at 50 μM (FIG. 4).
In order to determine the effect of Cbz-Val-Asp(OMe)-CH2F at low doses, HeLa cells were treated with a range of concentrations from 0.05 μM to 1 μM.

[4] = tested on: PARP cleavage in Jurkat cells; assay: Inhibition of PARP cleavage in antiFas-treated Jurkat cells (Example 22, Western blot); format: cell-based, human; settings: antiFas-treated Jurkat cells
Text: The cleavage of the enzyme poly(ADP)ribose polymerase (PARP) appears to occur in all cells in which the caspase proteolytic cascade is activated. For this reason, PARP cleavage is widely used as a biochemical marker for caspase-mediated apoptosis. The ability of a cytoprotective drug to block PARP cleavage is considered to be an indication of the drug's ability to inhibit the caspase proteolytic cascade and, in particular, CPP32 (caspase-3), the main PARP protease. The ability of Cbz-Val-Asp(OMe)-CH2F to inhibit PARP cleavage was examined during Fas-mediated apoptosis of Jurkat cells, a human T-cell line. This cell culture model of apoptosis is well-characterized and is known to involve activation of at least two caspases, caspase-3 (CPP32) and caspase-8 (FLICE/MACH).
For PARP cleavage assays, Jurkat cells were seeded at a density of 500,000 cells per well in six-well multidishes in RPMI 1640 medium containing 10% FBS. The cells were pre-incubated with Cbz-Val-Asp(OMe)-CH2F or other test compounds for 2 hours at 37° C. in a CO2 incubator and then a monoclonal antibody to Fas was added at a final concentration of 500 ng/mL. Incubation at 37° C. in a CO2 incubator was continued for an additional 4 hours. […] An amount of lysate corresponding to 10 to 20 μg of protein was loaded on a 7.5% SDS polyacrylamide gel and electrophoresed for 2 to 2.5 hrs at 25 mA. The protein was then transferred to a PVDF membrane, probed with a rabbit polyclonal antibody to PARP, and visualized using chemiluminescence.
Jurkat cells were pre-incubated with 0.5, 5, or 50 μM of the following compounds: Cbz-Val-Asp(OMe)-CH2F (compound 1); BOC-Asp(OMe)-CH2F (compound 5); Cbz-Asp-α-([2,6-dichlorobenzoyloxy]-methyl ketone) (compound 6), Cbz-Glu(OMe)-Val-Asp(OMe)-CH2F (compound 3), Cbz-Asp(OMe)-Glu(OMe)-Val-Asp(OMe)-CH2F (SEQ ID NO:1) (compound 2), Cbz-Ile-Glu(OMe)-Thr-Asp(OMe)-CH2F (SEQ ID NO:2) (compound 4), or Cbz-Val-Ala-Asp(OMe)-CH2F (compound 7). The cells were then treated with antiFas and processed for Western Blotting.

[5] = target: T1, Caspase-3 (Homo sapiens, UniProt P42574); assay: Caspase-3 activity of the dipeptide inhibitors (Table III); format: biochemical
T1 sequence (P42574 29-175 limits assumed): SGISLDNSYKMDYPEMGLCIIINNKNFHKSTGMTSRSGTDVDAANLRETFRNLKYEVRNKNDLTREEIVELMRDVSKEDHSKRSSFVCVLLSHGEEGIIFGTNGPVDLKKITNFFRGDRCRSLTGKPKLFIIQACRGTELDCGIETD

Row | Compound | inhibition of PARP cleavage ([4]; 0.5 μM) | inhibition of PARP cleavage ([4]; 5 μM) | inhibition of PARP cleavage ([4]; 50 μM) | IC50 [5] [nM] | also measured
1 | CC(=O)N[C@@H](CC(=O)O)C(=O)N[C@@H](CCC(=O)O)C(=O)N[C@H](C(=O)N[C@H](C=O)CC(=O)O)C(C)C [Ac-DEVD-CHO] | – | – | – | – | cytoprotection against TNF-α-induced cell death [1]: very ineffective
2 | COC(=O)CC(NC(=O)OC(C)(C)C)C(=O)CF (stereo not drawn) [BOC-Asp(OMe)-CH2F] | only marginally effective | effective inhibitors | effective inhibitors | – | cytoprotection of HeLa cells from apoptotic effects of TNF-α and CHX (microscopy) ([2]; 5 μM): less effective; cytoprotection of HeLa cells from apoptotic effects of TNF-α and CHX (microscopy) ([2]; 50 μM): protective; protection of HeLa cells from TNF-α/CHX (calcein AM) ([3]; 0.5 μM): inactive; protection of HeLa cells from TNF-α/CHX (calcein AM) ([3]; 5 μM): effective cytoprotectant; protection of HeLa cells from TNF-α/CHX (calcein AM) ([3]; 50 μM): effective cytoprotectant
3 | COC(=O)CC[C@H](NC(=O)[C@H](CC(=O)OC)NC(=O)OCc1ccccc1)C(=O)N[C@H](C(=O)N[C@@H](CC(=O)OC)C(=O)CF)C(C)C [Cbz-Asp(OMe)-Glu(OMe)-Val-Asp(OMe)-CH2F] | only marginally effective | only marginally effective | inhibited PARP cleavage completely | – | cytoprotection of HeLa cells from apoptotic effects of TNF-α and CHX (microscopy) ([2]; 5 μM): no cytoprotective properties; cytoprotection of HeLa cells from apoptotic effects of TNF-α and CHX (microscopy) ([2]; 50 μM): only marginally effective; protection of HeLa cells from TNF-α/CHX (calcein AM) ([3]; 50 μM): only minimally effective
4 | O=C(O)CC(NC(=O)OCc1ccccc1)C(=O)COC(=O)c1c(Cl)cccc1Cl (stereo not drawn) [Cbz-Asp-DCB, Cbz-Asp-α-([2,6-dichlorobenzoyloxy]methylketone)] | only marginally effective | only marginally effective | inhibited PARP cleavage completely | – | –
5 | COC(=O)CC[C@H](NC(=O)OCc1ccccc1)C(=O)N[C@H](C(=O)N[C@@H](CC(=O)OC)C(=O)CF)C(C)C [Cbz-Glu(OMe)-Val-Asp(OMe)-CH2F] | only marginally effective | effective inhibitors | effective inhibitors | – | cytoprotection of HeLa cells from apoptotic effects of TNF-α and CHX (microscopy) ([2]; 5 μM): less effective; cytoprotection of HeLa cells from apoptotic effects of TNF-α and CHX (microscopy) ([2]; 50 μM): protective
6 | CC[C@H](C)[C@H](NC(=O)OCc1ccccc1)C(=O)N[C@@H](CCC(=O)OC)C(=O)N[C@H](C(=O)N[C@@H](CC(=O)OC)C(=O)CF)[C@@H](C)O [Cbz-Ile-Glu(OMe)-Thr-Asp(OMe)-CH2F] (Cbz-IE(OMe)TD(OMe)-CH2F) | only marginally effective | only marginally effective | inhibited PARP cleavage completely | – | –
7 | COC(=O)C[C@H](NC(=O)[C@H](C)NC(=O)[C@@H](NC(=O)OCc1ccccc1)C(C)C)C(=O)CF [Cbz-Val-Ala-Asp(OMe)-CH2F] (Cbz-Val-Ala-Asp(OMe)-CH2F) | only marginally effective | effective inhibitors | effective inhibitors | – | cytoprotection of HeLa cells from TNF-α/CHX at low doses ([3]; concentration range 0.05 μM to 1 μM): no cytoprotection
8 | COC(=O)CC[C@H](NC(=O)[C@H](CC(=O)OC)NC(=O)OCc1ccccc1)C(=O)N[C@H](C(=O)N[C@@H](CC(=O)OC)C(=O)CF)C(C)C [Z-DEVD-fmk] | – | – | – | – | cytoprotection against TNF-α-induced cell death [1]: very ineffective
9 | O=C(O)CC(NC(=O)C(Cc1cnc[nH]1)NC(=O)OCc1ccccc1)C(=O)CF [Z-L-His-Asp-fmk, Z-His-Asp-fmk] (Cbz-His-Asp-CH2F; configuration not given here) | – | – | – | 770 | –
10 | O=C(O)C[C@H](NC(=O)[C@@H]1CCCN1C(=O)OCc1ccccc1)C(=O)CF [Z-L-Pro-Asp-fmk, Z-Pro-Asp-fmk] (Cbz-Pro-Asp-CH2F) | – | – | – | 410 | –
11 | O=C(O)C[C@H](NC(=O)[C@H](Cc1ccc(O)cc1)NC(=O)OCc1ccccc1)C(=O)CF [Z-L-Tyr-Asp-fmk, Z-Tyr-Asp-fmk] (Cbz-Tyr-Asp-CH2F) | – | – | – | 660 | –
12 | CC(C)[C@@H](C(=O)N[C@@H](CC(=O)O)C(=O)CF)N(C)C(=O)OCc1ccccc1 [Z-N-Me-L-Val-Asp-fmk, Z-N-Me-Val-Asp-fmk] | – | – | – | 1300 | –
13 | Cbz-Ala-Asp-CH2F [Z- -Ala-Asp-fmk] | – | – | – | 3500 | –
